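A five-concentration, 48-hour dose response in 96-well plates underlies each endpoint, interpolated linearly between surrounding concentrations. TGI denotes the concentration required for complete inhibition of growth.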
Experiments:
Test in all cases: NCI-60 cell line screen, 48 h
OVCAR-5 ovarian = system: OVCAR-5 ovarian
HCC-2998 colon = system: HCC-2998 colon
NCI-H522 lung = system: NCI-H522 lung
SF-295 CNS = system: SF-295 CNS
SNB-75 CNS = system: SNB-75 CNS
RXF 393 renal = system: RXF 393 renal
T-47D breast = system: T-47D breast
SK-MEL-28 melanoma = system: SK-MEL-28 melanoma
HCT-15 colon = system: HCT-15 colon
PC-3 prostate = system: PC-3 prostate
CCRF-CEM leukemia = system: CCRF-CEM leukemia
NCI-H23 lung = system: NCI-H23 lung
MOLT-4 leukemia = system: MOLT-4 leukemia
HS 578T breast = system: HS 578T breast
EKVX NSCLC = system: EKVX NSCLC
RPMI-8226 leukemia = system: RPMI-8226 leukemia
COLO 205 colon = system: COLO 205 colon
SF-539 CNS = system: SF-539 CNS
HOP-92 NSCLC = system: HOP-92 NSCLC
HCT-116 colon = system: HCT-116 colon
SK-OV-3 ovarian = system: SK-OV-3 ovarian
SK-MEL-2 melanoma = system: SK-MEL-2 melanoma
KM12 colon = system: KM12 colon
DU-145 prostate = system: DU-145 prostate
SW-620 colon = system: SW-620 colon
OVCAR-3 ovarian = system: OVCAR-3 ovarian
HT29 colon = system: HT29 colon
HOP-62 NSCLC = system: HOP-62 NSCLC
SN12C renal = system: SN12C renal
M14 melanoma = system: M14 melanoma
NCI-H226 lung = system: NCI-H226 lung
UO-31 renal = system: UO-31 renal
HL-60(TB) leukemia = system: HL-60(TB) leukemia
MDA-MB-435 = system: MDA-MB-435
MDA-MB-231 breast = system: MDA-MB-231 breast
NCI/ADR-RES ovarian = system: NCI/ADR-RES ovarian
MDA-N = system: MDA-N
OVCAR-8 ovarian = system: OVCAR-8 ovarian
MCF7 breast = system: MCF7 breast
MALME-3M melanoma = system: MALME-3M melanoma
UACC-257 melanoma = system: UACC-257 melanoma
ACHN renal = system: ACHN renal
SNB-19 CNS = system: SNB-19 CNS
K-562 leukemia = system: K-562 leukemia
786-0 renal = system: 786-0 renal
A549 NSCLC = system: A549 NSCLC
TK-10 renal = system: TK-10 renal
SK-MEL-5 melanoma = system: SK-MEL-5 melanoma
SF-268 CNS = system: SF-268 CNS
LOX IMVI melanoma = system: LOX IMVI melanoma
CAKI-1 renal = system: CAKI-1 renal
U251 CNS = system: U251 CNS
OVCAR-4 ovarian = system: OVCAR-4 ovarian
IGROV1 ovarian = system: IGROV1 ovarian
A498 renal = system: A498 renal
NCI-H460 lung = system: NCI-H460 lung

Measured: TGI

CC(=O)Nc1cc(C(=O)Nc2cc(C(=O)Nc3cc(C(=O)Nc4cc(C(=O)Nc5cc(C(=O)NCCC(=O)NCCCN(C)C)n(C)c5)n(C)c4)n(C)c3)n(C)c2)n(C)c1
72.2 µM: T-47D breast
75 µM: HOP-92 NSCLC
55.6 µM: NCI-H522 lung
73.9 µM: CCRF-CEM leukemia
44.6 µM: CAKI-1 renal
> 100 µM: all other assays above

— PubChem BioAssay (NCI)
